This note sets out measurements from patent US6482849B1, “Inhibitors of α4β1 mediated cell adhesion” (Tanabe Seiyaku Co., Ltd., priority 1997, dated 2002).

Structures can show the parent of a compound that is named as a salt.

Usually IC50 stands for the concentration needed to halve the response being measured. A low value points to greater potency.

Test [1] addresses T1, α4β1 integrin (Jurkat cell adhesion to immobilized CS-1 derived peptide CLHPGEILDVPST) (Homo sapiens, UniProt P05556+P13612).
T1 construct: 100 μl of Jurkat cells (2.5×10^6 cells/ml) in DMEM plus BSA; endogenous in cells; host or cells: Jurkat T-cell line
Kind of test: Jurkat-CS-1 Assay. The class given is cell-based. The following applies: Jurkat cells on CS-1 peptide coated plates. On the procedure:
The CS-1 derived peptide, CLHPGEILDVPST, and the scrambled control peptide, CLHGPIELVSDPT, were synthesized on a Beckman 990 synthesizer using t-Boc methodology. The peptides were immobilized onto microtiter plates using the heterobifunctional crosslinker 3-(2-pyridyldithio)propionic acid N-hydroxysuccinimide ester (SPDP) as reported by Pierschbacher et al., Proc. Natl. Acad. USA, 80:1224-1227 (1983). Microtiter plates were coated with 20 μg/ml HSA for 2 hr. at room temperature, washed once with PBS and derivatized with 10 μg/ml SPDP for 1 hr. After washing, 100 μl of a 100 μg/ml cysteine containing peptide solution which had been recently dissolved was added to the wells and allowed to crosslink to the plates overnight at 4° C. Unbound peptide was removed from plates by washing with PBS. To block non-reacted sites, the plates are coated with 100 μl of a 2.5 mg/ml BSA solution in PBS for 1 hr. at 37° C. 100 μl of Jurkat cells (2.5×10^6 cells/ml) in DMEM plus BSA (2.5 mg/ml) was mixed with an appropriate concentration of the compound to be tested and the mixture was added to peptide coated dishes and incubated for 1 hr. at 37° C. Generally 100, 20, 5 and 1.25 μM concentrations of the compound were tested.
Following this incubation the plates were washed once with PBS and the attached cells were fixed with 3% paraformaldehyde in PBS and stained with 0.5% toluidine blue in 3.7% formaldehyde. The cells were stained overnight at room temperature and the optical density at 590 nm of toluidine blue stained cells was determined using a vertical pathway spectrophotometer to quantitate attachment (VMAX Kinetic Microplate Reader, Molecular Devices, Menlo Park, Calif.). This procedure is a modification of a previously published method (Cardarelli et al, J. Biol. Chem., 269:18668-18673 (1994) and Cardarelli et al, Proc. Natl. Acad. Sci. USA, 83:2647-2651 (1986)).

Test [2] concerns the target T2, α4β1 integrin (Jurkat T-cell adhesion to IL-1 stimulated endothelial cell monolayers) (Homo sapiens, UniProt P05556+P13612).
T2 construct: a T-cell line, Jurkat, known to express the α4β1 integrin; host or cells: Jurkat T-cell line
Put plainly: Jurkat-Endothelial Cell Adhesion Assay (Jurkat EC). The class given is cell-based. The following applies: Jurkat cells on IL-1 stimulated HUVEC monolayers. The procedure: The following assay established the activity of the present compounds in inhibiting β1-mediated cell adhesion in a representative in vitro system. This assay measures the adhesive interactions of a T-cell line, Jurkat, known to express the α4β1 integrin, to endothelial monolayers in the presence of test compounds. The test compounds were added in increasing concentrations to T-cells and then the T-cell compound mixture was added to IL-1 stimulated endothelial cell monolayers. The plates were incubated, washed and the percentage of attached cells was quantitated. […] Human umbilical vein endothelial cells were purchased from Clonetics (San Diego, Calif.) at passage number 2. The cells were grown on 0.5% porcine skin gelatin pre-coated flasks (Sigma, St. Louis Mo.) in EGM-UV media (Clonetics, San Diego, Calif.) supplemented with 10% fetal bovine serum. Cells are refed every 2-3 days reaching confluence by day 4 to 6. […] The endothelial cells are not used following passage 6. Am The T-cell line Jurkat was obtained from American Type Tissue Culture Collection (Rockville, Md.) and the cells were cultured in RPMI containing 10% fetal calf serum. The cells were washed twice in Hank's Balanced Salt Solution (HBSS) and resuspended in Dulbecco's […] Eagle's Media (DMEM) containing 2.5 mg/ml Human Serum Albumin (HSA). Jurkat cells (1×10^6 cells/ml) were stained with 10 ng/ml BCECF-AM z z (Molecular Probes, Eugene, Ore.)) in HBSS without phenol red. The cells were loaded with BCECF for 60 minutes in the dark at 37° C., washed 2 times, and resusupended in DMEM-HSA solution.
Confluent endothelial monolayers, grown in 96-well tissue culture plates, were stimulated for 4 hr. at 37° C. with 0.1 ng/ml (˜50 U/ml) recombinant IL-1 (Amgen, Thousand Oaks, Calif.). Following this incubation, the monolayers were washed twice with HBSS and 0.1 ml of DMEM-HSA solution was added. Jurkat cells (5×10^5 cells) were combined with the appropriate concentration of the test compound and 0.1 ml of the Jurkat cell-compound mixture was added to the endothelial cell monolayers. Generally, 100, 20, 5 and 1.25 μM compound concentrations were tested. […] The plates were placed on ice for 5 minutes to allow for Jurkat cell settling and the plates were incubated at 37° C. for 20 minutes. Following this incubation, the monolayers were washed twice with PBS containing 1 mM calcium chloride and 1 mM magnesium chloride and the plates were read using a Millipore Cytofluor 2300 (Marlboro, Mass.). Fluorescence in each well was measured as Arbitrary Fluorescence Units and percent adhesion in the absence of compound was adjusted to 100% and the % adhesion in the presence of compound was calculated. Monolayers were also fixed in 3% paraformaldehyde and evaluated microscopically to verify the adhesion. This procedure is a modification of a previously published method (Cardarelli et al., J. Biol. Chem. 269:18668-18673 (1994)).

T2 sequence (P13612 34-1032): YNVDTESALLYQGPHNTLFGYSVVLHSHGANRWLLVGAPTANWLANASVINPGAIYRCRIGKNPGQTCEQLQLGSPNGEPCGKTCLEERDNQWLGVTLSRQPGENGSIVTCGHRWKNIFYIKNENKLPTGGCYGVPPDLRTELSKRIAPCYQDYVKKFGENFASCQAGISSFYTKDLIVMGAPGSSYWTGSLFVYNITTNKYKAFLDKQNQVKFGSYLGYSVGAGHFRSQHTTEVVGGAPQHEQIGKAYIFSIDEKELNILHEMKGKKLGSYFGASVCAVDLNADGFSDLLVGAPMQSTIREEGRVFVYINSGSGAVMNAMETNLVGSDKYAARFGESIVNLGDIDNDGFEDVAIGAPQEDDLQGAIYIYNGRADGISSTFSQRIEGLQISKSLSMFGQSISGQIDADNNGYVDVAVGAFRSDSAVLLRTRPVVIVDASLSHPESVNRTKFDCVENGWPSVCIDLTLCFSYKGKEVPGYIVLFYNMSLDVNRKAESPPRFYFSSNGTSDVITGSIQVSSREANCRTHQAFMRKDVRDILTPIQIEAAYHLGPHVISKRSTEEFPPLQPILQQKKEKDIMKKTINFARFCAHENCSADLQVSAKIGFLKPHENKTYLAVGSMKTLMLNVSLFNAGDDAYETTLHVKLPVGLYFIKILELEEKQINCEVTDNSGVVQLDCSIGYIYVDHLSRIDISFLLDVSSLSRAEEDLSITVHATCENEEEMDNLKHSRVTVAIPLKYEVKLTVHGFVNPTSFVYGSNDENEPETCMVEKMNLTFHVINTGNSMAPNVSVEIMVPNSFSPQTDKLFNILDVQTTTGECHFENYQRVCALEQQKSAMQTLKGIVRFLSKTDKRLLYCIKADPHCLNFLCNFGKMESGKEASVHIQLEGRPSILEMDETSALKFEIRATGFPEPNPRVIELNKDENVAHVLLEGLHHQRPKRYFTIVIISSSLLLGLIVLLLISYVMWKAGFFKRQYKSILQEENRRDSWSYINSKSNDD
T2 sequence (P05556 21-798): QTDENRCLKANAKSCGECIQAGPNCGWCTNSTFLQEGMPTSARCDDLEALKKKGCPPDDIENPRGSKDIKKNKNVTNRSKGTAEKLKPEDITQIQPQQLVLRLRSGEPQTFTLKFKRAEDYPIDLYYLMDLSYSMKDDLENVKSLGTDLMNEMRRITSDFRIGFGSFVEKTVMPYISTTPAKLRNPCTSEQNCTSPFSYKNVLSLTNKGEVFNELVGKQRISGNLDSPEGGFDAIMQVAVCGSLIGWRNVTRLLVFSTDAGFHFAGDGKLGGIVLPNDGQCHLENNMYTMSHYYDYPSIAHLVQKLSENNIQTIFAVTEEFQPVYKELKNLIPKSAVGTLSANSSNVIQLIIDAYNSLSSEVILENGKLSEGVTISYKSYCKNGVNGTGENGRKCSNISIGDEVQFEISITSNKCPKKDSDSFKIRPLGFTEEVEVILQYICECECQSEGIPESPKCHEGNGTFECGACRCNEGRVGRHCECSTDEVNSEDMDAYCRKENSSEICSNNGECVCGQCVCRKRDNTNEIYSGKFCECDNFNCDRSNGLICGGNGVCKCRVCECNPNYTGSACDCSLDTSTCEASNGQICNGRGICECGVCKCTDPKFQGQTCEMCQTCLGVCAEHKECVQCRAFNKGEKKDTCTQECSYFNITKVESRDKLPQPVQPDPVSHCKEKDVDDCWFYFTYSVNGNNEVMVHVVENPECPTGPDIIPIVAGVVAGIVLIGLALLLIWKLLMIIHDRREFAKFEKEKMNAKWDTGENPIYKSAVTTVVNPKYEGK
T1 sequence (P13612 34-1032): as the sequence (P13612 34-1032) above
T1 sequence (P05556 21-798): as the sequence (P05556 21-798) above

On to `COC(=O)[C@H](Cc1ccc(NC(=O)c2ccccc2C)cc1)NC(=O)[C@H]1CC[C@@](C)(C(=O)O)C1(C)C` [Example 137], for which the IC50 in test [1] fell in the range of 80 to 500 nM.

For `CC(C)(C)c1ccc(C(=O)Nc2ccc(C[C@H](NC(=O)[C@H]3CC[C@@](C)(C(=O)O)C3(C)C)C(=O)O)cc2)c(Cl)c1` [Example 253, (1S-cis)-N-[(3-Carboxy-2,2,3-trimethylcyclopentyl)carbonyl]-4-[[2-chloro-4-[(1,1-dimethyl)ethyl]benzoyl]amino]-L-phenylalanine], the IC50 in test [1] lay within 80 to 500 nM; in test [2], 800 to 5000 nM.

As for `CC1(C)[C@@H](C(=O)N[C@@H](Cc2ccc(NC(=O)c3c(Cl)cccc3Cl)cc2)C(=O)O)CC[C@@]1(C)C(=O)NCCC(=O)O` [Example 214], the IC50 in test [1] is no more than 80 nM; in test [2], no more than 800 nM.

Regarding `CC1(C)[C@@H](C(=O)N[C@@H](Cc2ccc(OCc3c(Cl)cccc3Cl)c(Cl)n2)C(=O)O)CC[C@@]1(C)C(=O)O` (relative stereo) [Example 194, [1S-[1α(R*),3α]]-α-[[(3-Carboxy-2,2,3-trimethylcyclopentyl)carbonyl]amino]-6-chloro-5-[(2,6-dichlorophenyl)methoxy]-2-pyridinepropanoic acid], the values for the IC50 in test [1] and in test [2] were 80 to 500 nM and 800 to 5000 nM, respectively.

Consider `CC1(C)[C@@H](C(=O)N[C@@H](Cc2ccc(OCc3c(Cl)cccc3Cl)cc2)C(=O)O)CC[C@@]1(C)C(=O)NCC(N)=O` [Example 187, (1S-cis)-N-[[3-[[(2-amino-2-oxoethyl)-amino]carbonyl]-2,2,3-trimethylcyclopentyl]carbonyl]-O-[(2,6-dichlorophenyl)methyl]-L-tyrosine], for which the IC50 in test [1] was in the range of 80 to 500 nM; in test [2], 800 to 5000 nM.

Consider `CC1(C)[C@@H](C(=O)N[C@@H](Cc2cn(Cc3c(Cl)cccc3Cl)cn2)C(=O)O)CC[C@@]1(C)C(=O)O` [Example 26], for which the half-maximal inhibitory concentration (IC50) in test [1] was 500 to 1000 nM; in test [2], 800 to 5000 nM.

As for `CC1(C)[C@@H](C(=O)N[C@@H](Cc2cn(Cc3ccc(Cl)cc3)cn2)C(=O)O)CC[C@@]1(C)C(=O)O` [Example 28], the IC50 in test [1] lay in the range of 80 to 500 nM; in test [2] it was 800 to 5000 nM.

`CC1(C)[C@@H](C(=O)N[C@@H](Cc2ccc(NC(=O)c3c(Cl)cccc3Cl)cc2)C(=O)O)CC[C@@]1(C)/C=C/C(=O)O` [Example 182, [1S-[1α,3α(E)]]-N-[[3-(2-Carboxyethenyl)-2,2,3-trimethylcyclopentyl]carbonyl]-4-[(2,6-dichlorobenzoyl)amino]-L-phenylalanine disodium salt]: the IC50 in test [1] is no more than 80 nM; in test [2], no more than 800 nM.

As for `CC1(C)[C@@H](C(=O)N[C@@H](Cc2ccc(NC(=O)c3c(Cl)cccc3Cl)cc2)C(=O)O)CC[C@@]1(C)C(=O)NO` [Example 219, (1S-cis)-4-[(2,6-Dichlorobenzoyl)amino]-N-[[3-[(hydroxyamino)carbonyl]-2,2,3-trimethyl-cyclopentyl]carbonyl]-L-phenylalanine], the IC50 in test [1] was no more than 80 nM; in test [2] it was no more than 800 nM.

On to `CC1(C)[C@@H](C(=O)N[C@@H](Cc2ccc(C(=O)Nc3c(Cl)cccc3Cl)cc2)C(=O)O)CC[C@@]1(C)C(=O)O` [Example 153], for which the figures for the IC50 in test [1] and in test [2] were 80 to 500 nM and 800 to 5000 nM, respectively.

Take `CC1(C)[C@@H](C(=O)N[C@@H](Cc2ccc(NC(=O)c3ccccc3[N+](=O)[O-])cc2)C(=O)O)CC[C@@]1(C)C(=O)O` [Example 102]: the IC50 in test [1] was no more than 80 nM; in test [2], no more than 800 nM.

With `CC1(C)[C@@H](C(=O)O)CC[C@@]1(C)C(=O)N[C@@H](Cc1ccc(OCc2c(Cl)cccc2Cl)cc1)C(=O)O` [Example 186, (1R-cis)-N-[(3-Carboxy-1,2,2-trimethylcyclopentyl)carbonyl]-O-[(2,6-dichlorophenyl)methyl]-L-tyrosine], the results for the 50% inhibitory concentration (IC50) in test [1] and in test [2] were 80 to 500 nM and 800 to 5000 nM, respectively.

`COC(=O)[C@H](Cc1ccc(NC(=O)c2c(Cl)cc(Cl)cc2Cl)cc1)NC(=O)[C@H]1CC[C@@](C)(C(=O)O)C1(C)C` [Example 92]: the IC50 in test [1] is no more than 80 nM; in test [2] it was no more than 800 nM.

On to `CC1(C)[C@@H](C(=O)N[C@@H](Cc2ccc(C(=O)Nc3ccc(-c4ccccc4)cc3)cc2)C(=O)O)CC[C@@]1(C)C(=O)O` [Example 220], for which the IC50 in test [1] lay in the range of 80 to 500 nM; in test [2], 800 to 5000 nM.

`C[C@H](NC(=O)[C@]1(C)CC[C@H](C(=O)N[C@@H](Cc2ccc(OCc3c(Cl)cccc3Cl)cc2)C(=O)O)C1(C)C)C(=O)O` (relative stereo) [Example 188, [1S-[1α, 3α(R)]]-N-[[3-[[(1-Carboxyethyl)amino]carbonyl]-2,2,3-trimethylcyclopentyl]carbonyl]-O-[(2,6-dichlorophenyl)methyl]-L-tyrosine]: the IC50 is 80 to 500 nM in test [1] and 800 to 5000 nM in test [2].

`COC(=O)[C@H](Cc1ccc(NC(=O)c2cc(C(F)(F)F)ccc2C(F)(F)F)cc1)NC(=O)[C@H]1CC[C@@](C)(C(=O)O)C1(C)C` [Example 103]: the values for the IC50 in test [1] and in test [2] were no more than 80 nM and no more than 800 nM, respectively.

As to `COC(=O)[C@H](Cc1ccc(NC(=O)c2c(Cl)cccc2Cl)cc1)NC(=O)[C@H]1CC[C@@](C)(C(=O)O)C1(C)C` [Example 53, (1S-cis)-N-[(3-Carboxy-2,2,3-trimethylcyclopentyl)carbonyl]-4-[(2,6-dichlorobenzoyl)amino]-L-phenylalanine methyl ester], the IC50 in test [1] was 500 to 1000 nM; in test [2] it was 800 to 5000 nM.

With `CC1(C)[C@@H](C(=O)N[C@@H](Cc2ccc(C(=O)Nc3c(Cl)cc(Cl)cc3Cl)cc2)C(=O)O)CC[C@@]1(C)C(=O)O` [Example 223], the IC50 in test [1] was no more than 80 nM; in test [2] it was no more than 800 nM.

Consider `CC1(C)[C@@H](C(=O)N[C@@H](Cc2ccc(NC(=O)c3c(Cl)cccc3Cl)cc2)C(=O)O)CC[C@@]1(C)C(=O)N1CCC[C@H]1C(N)=O` (relative stereo) [Example 213, [1S-[1α,3α(R*)]]-N-[3-[[2-(Aminocarbonyl)-1-pyrrolidinyl]carbonyl]-2,2,3-trimethylcyclopentyl]-carbonyl]-4-[(2,6-dichlorobenzoyl)amino]-L-phenylalanine monosodium salt], for which the IC50 in test [1] lay within 80 to 500 nM; in test [2] it was 800 to 5000 nM.

Turning to `CC1(C)[C@H](C(=O)N[C@@H](Cc2ccc(OCc3c(Cl)cccc3Cl)cc2)C(=O)O)CC[C@]1(C)C(=O)O` [Example 189, (1R-cis)-N-[(3-Carboxy-2,2,3-trimethylcyclopentyl)carbonyl]-O-[(2,6-dichlorophenyl)methyl]-L-tyrosine], in test [2], the 50% inhibitory concentration (IC50) was 800 to 5000 nM.

Compound `COc1ccc(Cn2cnc(C[C@H](NC(=O)[C@H]3CC[C@@](C)(C(=O)O)C3(C)C)C(=O)O)c2)cc1` [Example 31] had an IC50 in test [2] of 5000 to 10000 nM.
